This note sets out measurements from patent US7273848B2, “Apolipoprotein A-I agonists and their use to treat dyslipidemic disorders” (priority 1997, dated 2007).

Non-standard residues stand in square brackets, D forms with d. Residues, ends and D or L forms follow the SMILES beside them. No end group written: not given here. Orn = NCCC[C@H](N)C(=O)O; Aib = CC(C)(N)C(=O)O Where only a bound is given, the exact number is not on record here.

The first assay concerns the target T1, LCAT (purified from human plasma) (Homo sapiens, UniProt P04180).
T1 construct: from tissue; host or cells: human plasma
T1 sequence (P04180 25-440): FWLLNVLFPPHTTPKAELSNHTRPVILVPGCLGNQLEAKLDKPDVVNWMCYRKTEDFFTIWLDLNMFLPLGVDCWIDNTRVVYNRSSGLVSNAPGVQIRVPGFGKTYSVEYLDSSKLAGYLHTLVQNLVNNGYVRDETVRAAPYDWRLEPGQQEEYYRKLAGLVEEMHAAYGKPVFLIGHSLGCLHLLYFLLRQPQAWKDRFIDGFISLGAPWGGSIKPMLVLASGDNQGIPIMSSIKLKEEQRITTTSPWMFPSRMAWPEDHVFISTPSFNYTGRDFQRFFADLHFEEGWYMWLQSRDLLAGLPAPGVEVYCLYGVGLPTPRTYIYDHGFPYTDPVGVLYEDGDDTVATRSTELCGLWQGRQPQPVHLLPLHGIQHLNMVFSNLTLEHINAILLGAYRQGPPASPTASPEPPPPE
The assay can be described thus: LCAT activation assay. The class given is biochemical. To be noted: LCAT activation as compared with native human ApoA-I (= 100%), equivalent masses. Here is the method: The peptides synthesized as described in Section 6, supra, were analyzed in vitro for their ability to activate LCAT. In the LCAT assay, substrate vesicles (small unilamellar vesicles or “SUVs”) composed of egg phophatidylcholine (EPC) or 1-Palmitoyl-2-oleyl-phosphatidyl-choline (POPC) and radiolabelled cholesterol are preincubated with equivalent masses either of peptide or ApoA-I (isolated from human plasma). The reaction is initiated by addition of LCAT (purified from human plasma). Native ApoA-I, which was used as positive control, represents 100% activation activity. “Specific activity” (i.e., units of activity (LCAT activation)/unit of mass) of the peptides can be calculated as the concentration of peptide that achieves maximum LCAT activation. For example, a series of concentrations of the peptide (e.g., a limiting dilution) can be assayed to determine the “specific activity” for the peptide—the concentration which achieves maximal LCAT activation (i.e., percentage conversion of cholesterol to cholesterol ester) at a specific timepoint in the assay (e.g., 1 hr.). When plotting percentage conversion of cholesterol at, e.g., 1 hr., against the concentration of peptide used, the “specific activity” can be identified as the concentration of peptide that achieves a plateau on the plotted curve.
The vesicles used in the LCAT assay are SUVs composed of egg phosphatidylcholine (EPC) or 1-palmitoyl-2-oleyl-phosphatidylcholine (POPC) and cholesterol with a molar ratio of 20:1. To prepare a vesicle stock solution sufficient for 40 assays, 7.7 mg EPC (or 7.6 mg POPC; 10 μmol), 78 μg (0.2 μmol) 4-^14C-cholesterol, 116 μg cholesterol (0.3 μmol) are dissolved in 5 ml xylene and lyophilized. Thereafter 4 ml of assay buffer is added to the dry powder and sonicated under nitrogen atmosphere at 4° C. Sonication conditions: Branson 250 sonicator, 10 mm tip, 6×5 minutes; Assay buffer: 10 mM Tris, 0.14 M NaCl, 1 mM EDTA, pH 7.4). The sonicated mixture is centrifuged 6 times for 5 minutes each time at 14,000 rpm (16,000×g) to remove titanium particles. The resulting clear solution is used for the enzyme assay.
For the LCAT purification, dextran sulfate/Mg^2+ treatment of human plasma is used to obtain lipoprotein deficient serum (LPDS), which is sequentially chromatographed on Phenylsepharose, Affigelblue, ConcanavalinA sepharose and anti-ApoA-I affinity chromatography, as summarized for a representative purification in TABLE IX, below: […]
Consider “Ac-EWLEAFYKKVLEKLKELF-NH2 [compound 239, reference compound]”, for which the “ACTIVITY (%) LCAT” value is recorded as 11%. Same read-out and setting: as for “DWFKAFYDKFFEKFKEFF [peptide 247, reference compound]”, the figure is 3%; as for GVLELFLNLLERLLDALQKKLK [compound 177], 10%; as for `CC(C)C[C@H](NC(=O)[C@H](CCCCN)NC(=O)[C@H](CCC(N)=O)NC(=O)[C@H](CCCCN)NC(=O)C(C)(C)NC(=O)[C@H](C)NC(=O)[C@H](CCC(=O)O)NC(=O)[C@H](CC(C)C)NC(=O)[C@H](CCC(=O)O)NC(=O)[C@H](CCC(=O)O)NC(=O)[C@H](CC(N)=O)NC(=O)[C@H](CC(C)C)NC(=O)[C@H](CCCCN)NC(=O)[C@H](CCC(=O)O)NC(=O)[C@H](CCCNC(=N)N)NC(=O)[C@H](Cc1ccccc1)NC(=O)[C@H](CCC(=O)O)NC(=O)[C@H](CC(=O)O)NC(=O)[C@H](CC(C)C)NC(=O)[C@@H](NC(=O)[C@@H]1CCCN1)C(C)C)C(=O)N[C@@H](CCCCN)C(=O)O` [compound 119, PVLDEFREKLNEELEAXKQKLK] (H-PVLDEFREKLNEELEA[Aib]KQKLK-OH), 0%. With “DWFKAFYDKVFEKFKEFF [peptide 241, reference compound]”, the “ACTIVITY (%) LCAT” value worked out at 8%.

On to `CC(=O)N1CCC[C@H]1C(=O)N[C@H](C(=O)N[C@@H](CC(C)C)C(=O)N[C@@H](CC(=O)O)C(=O)N[C@@H](CC(C)C)C(=O)N[C@@H](Cc1ccccc1)C(=O)N[C@@H](CCCN)C(=O)N[C@@H](CCC(=O)O)C(=O)N[C@@H](CC(C)C)C(=O)N[C@@H](CC(C)C)C(=O)N[C@@H](CCC(=O)O)C(=O)N[C@@H](CCC(=O)O)C(=O)N[C@@H](CC(C)C)C(=O)N[C@@H](CCCN)C(=O)N[C@@H](CCC(N)=O)C(=O)N[C@@H](CCCN)C(=O)N[C@@H](CC(C)C)C(=O)N[C@@H](CCCCN)C(N)=O)C(C)C` [compound 212, PVLDLFOELLEELOQOLK] (Ac-PVLDLF[Orn]ELLEEL[Orn]Q[Orn]LK-NH2), for which the “ACTIVITY (%) LCAT” value was found to be 43%. The same measure, in the same setting: as for PVLELFENLLERLFDALQKKLK [peptide 147], the figure is 76%. Take PVLELFENLLEKLLDALQKKLK [compound 169]: the “ACTIVITY (%) LCAT” value is recorded as 17%.

Consider `CC(C)C[C@H](NC(=O)[C@H](CCCCN)NC(=O)[C@H](CCC(N)=O)NC(=O)[C@H](CCCCN)NC(=O)[C@H](CC(C)C)NC(=O)C(C)(C)NC(=O)[C@H](CCC(=O)O)NC(=O)[C@H](CC(C)C)NC(=O)[C@H](CCC(=O)O)NC(=O)[C@H](CCC(=O)O)NC(=O)[C@H](CC(N)=O)NC(=O)[C@H](CC(C)C)NC(=O)[C@H](CCCCN)NC(=O)[C@H](CCC(=O)O)NC(=O)[C@H](CCCNC(=N)N)NC(=O)[C@H](Cc1ccccc1)NC(=O)[C@H](CCC(=O)O)NC(=O)[C@H](CC(=O)O)NC(=O)[C@H](CC(C)C)NC(=O)[C@@H](NC(=O)[C@@H]1CCCN1)C(C)C)C(=O)N[C@@H](CCCCN)C(=O)O` [compound 120, PVLDEFREKLNEELEXLKQKLK] (H-PVLDEFREKLNEELE[Aib]LKQKLK-OH), for which the “ACTIVITY (%) LCAT” value is given as 0%. Same read-out and setting: for “Ac-GVLDLFRELLEELKQKLK-NH2 [compound 198]” the value was 80%; for PLLELFENLLEKLLDALQKKLK [compound 183], 6%; for PVLELFENLLEKLLDLLQKKLK [compound 171], 16%. As to PVLELFLNLWERLLDALQKKLK [peptide 155], the “ACTIVITY (%) LCAT” value is 38%. Turning to `CC(C)C[C@H](NC(=O)[C@H](CCCCN)NC(=O)[C@H](CCC(N)=O)NC(=O)[C@H](CCCCN)NC(=O)[C@H](CC(C)C)NC(=O)[C@H](C)NC(=O)[C@H](CCC(=O)O)NC(=O)[C@H](CC(C)C)NC(=O)C(C)(C)NC(=O)[C@H](CCC(=O)O)NC(=O)[C@H](CC(N)=O)NC(=O)[C@H](CC(C)C)NC(=O)[C@H](CCCCN)NC(=O)[C@H](CCC(=O)O)NC(=O)[C@H](CCCNC(=N)N)NC(=O)[C@H](Cc1ccccc1)NC(=O)[C@H](CCC(=O)O)NC(=O)[C@H](CC(=O)O)NC(=O)[C@H](CC(C)C)NC(=O)[C@@H](NC(=O)[C@@H]1CCCN1)C(C)C)C(=O)O` [compound 58, PVLDEFREKLNEXLEALKQKL~] (H-PVLDEFREKLNE[Aib]LEALKQKL-OH), the “ACTIVITY (%) LCAT” value is 18%.

In the case of PVLELFDNLLDKLLDALQKKLR [compound 180], the “ACTIVITY (%) LCAT” value is given as 8%. `CC(C)C[C@H](NC(=O)[C@H](C)NC(=O)[C@H](CCC(=O)O)NC(=O)[C@H](CC(C)C)NC(=O)C(C)(C)NC(=O)[C@H](CCC(=O)O)NC(=O)[C@H](CC(N)=O)NC(=O)[C@H](CC(C)C)NC(=O)[C@H](CCCCN)NC(=O)[C@H](CCC(=O)O)NC(=O)[C@H](CCCNC(=N)N)NC(=O)[C@H](Cc1ccccc1)NC(=O)[C@H](CCC(=O)O)NC(=O)[C@H](CC(=O)O)NC(=O)[C@H](CC(C)C)NC(=O)[C@H](Cc1c[nH]c2ccccc12)NC(=O)[C@@H]1CCCN1)C(=O)N[C@@H](CCCCN)C(=O)N[C@@H](CCC(N)=O)C(=O)N[C@@H](CCCCN)C(=O)N[C@@H](CC(C)C)C(=O)N[C@@H](CCCCN)C(=O)O` [compound 64, PWLDEFREKLNEXLEALKQKLK] (H-PWLDEFREKLNE[Aib]LEALKQKLK-OH): the “ACTIVITY (%) LCAT” value worked out at 15%.

Consider GVLDLFRELLNELLEALKQKLK [peptide 18], for which the “ACTIVITY (%) LCAT” value is 58%. Regarding `CC(C)C[C@H](NC(=O)[C@H](C)NC(=O)[C@H](CCC(=O)O)NC(=O)[C@H](CC(C)C)NC(=O)C(C)(C)NC(=O)[C@H](CCC(=O)O)NC(=O)[C@H](CC(N)=O)NC(=O)[C@H](CC(C)C)NC(=O)[C@H](CCCCN)NC(=O)[C@H](Cc1c[nH]c2ccccc12)NC(=O)[C@H](CCCNC(=N)N)NC(=O)[C@H](Cc1ccccc1)NC(=O)[C@H](CCC(=O)O)NC(=O)[C@H](CC(=O)O)NC(=O)[C@H](CC(C)C)NC(=O)[C@@H](NC(=O)[C@@H]1CCCN1)C(C)C)C(=O)N[C@@H](CCCCN)C(=O)N[C@@H](CCC(N)=O)C(=O)N[C@@H](CCCCN)C(=O)N[C@@H](CC(C)C)C(=O)N[C@@H](CCCCN)C(=O)O` [compound 61, PVLDEFRWKLNEXLEALKQKLK] (H-PVLDEFRWKLNE[Aib]LEALKQKLK-OH), the “ACTIVITY (%) LCAT” value was 16%. With `CC(C)C[C@H](NC(=O)[C@H](C)NC(=O)[C@H](CCC(=O)O)NC(=O)[C@H](CC(C)C)NC(=O)C(C)(C)NC(=O)[C@H](CCC(=O)O)NC(=O)[C@H](CC(N)=O)NC(=O)[C@H](CC(C)C)NC(=O)[C@H](CCCCN)NC(=O)[C@H](CCC(=O)O)NC(=O)[C@H](CCCNC(=N)N)NC(=O)[C@H](Cc1ccccc1)NC(=O)[C@H](CCC(=O)O)NC(=O)[C@H](CC(=O)O)NC(=O)[C@H](CC(C)C)NC(=O)[C@@H](N)C(C)C)C(=O)N[C@@H](CCCCN)C(=O)N[C@@H](CCC(N)=O)C(=O)N[C@@H](CCCCN)C(=O)N[C@@H](CC(C)C)C(=O)N[C@@H](CCCCN)C(=O)O` [compound 65, ~VLDEFREKLNEXLEALKQKLK] (H-VLDEFREKLNE[Aib]LEALKQKLK-OH), the “ACTIVITY (%) LCAT” value worked out at 15%. Consider AVLDLFRELLNELLEALKQKLK [compound 29], for which the “ACTIVITY (%) LCAT” value came to 39%.

On to `CC(C)C[C@H](NC(=O)[C@H](C)NC(=O)[C@H](Cc1c[nH]c2ccccc12)NC(=O)[C@H](CC(C)C)NC(=O)C(C)(C)NC(=O)[C@H](CCC(=O)O)NC(=O)[C@H](CC(N)=O)NC(=O)[C@H](CC(C)C)NC(=O)[C@H](CC(C)C)NC(=O)[C@H](CCC(=O)O)NC(=O)[C@H](CCCNC(=N)N)NC(=O)[C@H](Cc1ccccc1)NC(=O)[C@H](CC(C)C)NC(=O)[C@H](CC(=O)O)NC(=O)[C@H](CC(C)C)NC(=O)[C@@H](NC(=O)[C@@H]1CCCN1)C(C)C)C(=O)N[C@@H](CCCCN)C(=O)N[C@@H](CCC(N)=O)C(=O)N[C@@H](CCCCN)C(=O)N[C@@H](CC(C)C)C(=O)N[C@@H](CCCCN)C(=O)O` [compound 72, PVLDLFRELLNEXLWALKQKLK] (H-PVLDLFRELLNE[Aib]LWALKQKLK-OH), for which the “ACTIVITY (%) LCAT” value stood at 11%.

Consider PVLELFLNLLERLGDALQKKLK [compound 172], for which the “ACTIVITY (%) LCAT” value amounted to 16%.

The assay is the same for the next values; noted with them: LCAT activation as compared with native human ApoA-I (= 100%), equivalent masses; listed as N-acetylated, C-amidated peptide 18AM4.
With “Ac-EWLEAFYKKVLEKLKELF-NH2 [compound 239, reference compound]”, the “ACTIVITY (%) LCAT” value was below 11%.
